Experimental data from the supplement of paper PMC10307832.

Columns and labels:
Assay in all cases: relative viability (nuclei count vs DMSO), 5 days (fraction); higher = more cells survive
[1] = compound: CCN1CCN(c2ccc(Nc3cc(N(C)C(=O)Nc4c(Cl)c(OC)cc(OC)c4Cl)ncn3)cc2)CC1 [BGJ398] + Cc1nc(NC(=O)N2CCC[C@H]2C(N)=O)sc1-c1ccnc(C(C)(C)C(F)(F)F)c1 [Alpelisib] (partner 2 µM)
How it was run: (§1)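 Lung cancer cell lines in 1536-well plates were dosed by pin tool the day after seeding, either with one drug alone or with a fixed anchor-drug dose plus five library-drug doses (not always all listed) in √10 steps. After 5 days, cells were fixed and their nuclei stained in one step (final 0.05% Triton X-100, 1% formaldehyde, 1 ug/ml Hoechst), then counted on 4× images. Relative viability is the nuclei count in treated wells divided by that in vehicle wells. Values are medians of duplicate plates.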

[2] = compound: C1=CC2=NC=CN=C2C=C1/C=C/3\C(=O)NC(=O)S3 + COc1cccc2cc(-c3nc([C@H]4CC[C@H](C(=O)O)CC4)n4ncnc(N)c34)[nH]c12 [OSI-027] (partner 0.5 µM)
How it was run: as §1

[3] = compound: C1=CC2=NC=CN=C2C=C1/C=C/3\C(=O)NC(=O)S3 + Cc1cc(Nc2cc(N3CCN(C)CC3)nc(Sc3ccc(NC(=O)C4CC4)cc3)n2)n[nH]1 [Tozasertib] (partner 0.1 µM)
How it was run: as §1

[4] = compound: C1=CC2=NC=CN=C2C=C1/C=C/3\C(=O)NC(=O)S3 + NC(=O)Nc1cc(-c2cccc(F)c2)sc1C(=O)N[C@H]1CCCNC1 [AZD7762] (partner 0.2 µM)
How it was run: as §1

Cell Line | relative viability ([1]; first compound 0.01 µM) | relative viability ([1]; first compound 0.03162 µM) | relative viability ([1]; first compound 0.1 µM) | relative viability ([1]; first compound 0.3162 µM) | relative viability ([1]; first compound 1 µM) | relative viability ([2]; first compound 0.02 µM) | relative viability ([2]; first compound 0.06325 µM) | relative viability ([2]; first compound 0.2 µM) | relative viability ([2]; first compound 0.6325 µM) | relative viability ([2]; first compound 2 µM) | relative viability ([3]; first compound 0.02 µM) | relative viability ([3]; first compound 0.06325 µM) | relative viability ([3]; first compound 0.2 µM) | relative viability ([3]; first compound 0.6325 µM) | relative viability ([3]; first compound 2 µM) | relative viability ([4]; first compound 0.02 µM) | relative viability ([4]; first compound 0.06325 µM) | relative viability ([4]; first compound 0.2 µM) | relative viability ([4]; first compound 0.6325 µM) | relative viability ([4]; first compound 2 µM)
HCC-44 | 0.8 | 0.761 | 0.763 | 0.856 | 0.815 | 0.775 | 0.445 | 0.656 | 0.463 | 0.225 | 0.896 | 0.875 | 0.947 | 0.874 | 0.605 | 0.885 | 1 | 1.02 | 1.01 | 1
HCC-78 | 0.274 | 0.311 | 0.378 | 0.366 | 0.338 | 0.362 | 0.408 | 0.352 | 0.347 | 0.279 | 0.384 | 0.339 | 0.408 | 0.394 | 0.354 | 0.681 | 0.567 | 0.684 | 0.732 | 0.202
NCI-H727 | 0.625 | 0.665 | 0.524 | 0.578 | 0.5 | 0.624 | 0.598 | 0.686 | 0.575 | 0.343 | 0.676 | 0.703 | 0.736 | 0.569 | 0.545 | 0.597 | 0.63 | 0.737 | 0.678 | 0.337
NCI-H2087 | 0.99 | 1.17 | 1.05 | 1.19 | 1.18 | 0.42 | 0.523 | 0.615 | 0.574 | 0.37 | 0.206 | 0.273 | 0.212 | 0.243 | 0.238 | 1.14 | 1.36 | 1.21 | 1.21 | 1.26
BEN | 0.896 | 1.2 | 0.993 | 0.923 | 0.759 | 0.306 | 0.287 | 0.288 | 0.289 | 0.275 | 0.525 | 0.446 | 0.551 | 0.517 | 0.683 | 0.727 | 0.701 | 0.842 | 0.627 | 0.497
LCLC-103H | 1.03 | 0.954 | 0.991 | 0.975 | 0.778 | 0.431 | 0.493 | 0.489 | 0.377 | 0.308 | 0.563 | 0.424 | 0.45 | 0.52 | 0.456 | 0.658 | 0.886 | 0.828 | 0.749 | 0.629
EKVX | 0.798 | 0.665 | 0.95 | 0.842 | 0.977 | 0.69 | 0.405 | 0.683 | 0.683 | 0.408 | 0.423 | 0.321 | 0.38 | 0.449 | 0.352 | 0.677 | 0.653 | 0.595 | 0.692 | 0.436
LXF-289 | 0.983 | 1.03 | 1.02 | 0.957 | 0.947 | 0.744 | 0.756 | 0.788 | 0.804 | 0.395 | 0.186 | 0.147 | 0.185 | 0.185 | 0.168 | 1.06 | 0.975 | 1.1 | 0.986 | 1.18
